# Results as given in patent US20260284091A1, “IMIDAZOLE LOADED GLYCYRRHIZIC ACID HYDROGELS” (KATHOLIEKE UNIVERSITEIT LEUVEN, priority 2023, published 2026).
# How the values were obtained:
# Experiment in all cases: Growth inhibition and biocidal activity evaluation of glycyrrhizic acid hydrogels
# [1] = test system: MRSA; format: cell-based, Methicillin-resistant Staphylococcus aureus; details: bactericidal = 3 LOG reduction compared to the inoculum
# From the text: Escherichia coli UTI89, Pseudomonas aeruginosa LMG9009, Staphylococcus aureus ATCC6538, Klebsiella pneumoniae ATCC13883, Klebsiella aerogenes ATCC13048, Acinetobacter baumannii RD5SR3. Enterococcus faecalis LMG8148, Streptococcus pyogenes LMG 14237 and clinical isolates of a Staphylococcus epidermidis and a methicillin resistant S. aureus (MRSA), isolated from osteomyelitis patients were used. Prior to the experiments, all strains, except S. pyogenes were inoculated in Lysogeny broth (LB) and incubated overnight on 37° C. (200 rpm). Overnight cultures of S. pyogenes were grown micro-aerophilic in Brain-Heart infusion broth (BHI). Thereafter, the bacteria were normalized to roughly 5*10^5 CFU mL^−1. Lysogeny broth (LB; 10 g L^−1 NaCl, 10 g L^−1 Tryptone, 5 g L^−1 Yeast Extract) was used to create overnight cultures (ONC). […]
# (i) Hydrogel C with pH=3, (ii) Hydrogel B with pH=3.8 and (iii) Hydrogel A with pH=4.2. pH was measured at 70° C. and varied using HCl or NaOH to acidify or alkalify the formulation to the desired pH-value. […]
# To avoid evaporation, the plates were sealed using a membrane (Greiner Bio-one NV). After 24 hours of incubation (37° C., 200 rpm), the OD595 was measured and relative OD595 was calculated by dividing the OD595 by the average OD595 of the growth control (=growth of cells in MHB without glycyrrhizic acid). […]
# [2] = test system: Acinetobacter baumannii RD5SR3; format: cell-based; details: A. baumannii; bactericidal = 3 LOG reduction compared to the inoculum
# From the text: (§1) Escherichia coli UTI89, Pseudomonas aeruginosa LMG9009, Staphylococcus aureus ATCC6538, Klebsiella pneumoniae ATCC13883, Klebsiella aerogenes ATCC13048, Acinetobacter baumannii RD5SR3. Enterococcus faecalis LMG8148, Streptococcus pyogenes LMG 14237 and clinical isolates of a Staphylococcus epidermidis and a methicillin resistant S. aureus (MRSA), isolated from osteomyelitis patients were used. Prior to the experiments, all strains, except S. pyogenes were inoculated in Lysogeny broth (LB) and incubated overnight on 37° C. (200 rpm). Overnight cultures of S. pyogenes were grown micro-aerophilic in Brain-Heart infusion broth (BHI). Thereafter, the bacteria were normalized to roughly 5*10^5 CFU mL^−1. Lysogeny broth (LB; 10 g L^−1 NaCl, 10 g L^−1 Tryptone, 5 g L^−1 Yeast Extract) was used to create overnight cultures (ONC). Mueller Hinton Broth (MHB; 21 g L^−1 MHB) was used for the minimal inhibitory concentration (MIC) assays for all strain except S. pyogenes. For this strain, BHI was used. If LB agar, BHI agar or MHB agar was needed, 15 g L^−1 of bacteriological agar was added. MHB or BHI batches with varying pH were made by adding HCl or NaOH to acidify or alkalify the medium to the desired pH-value, respectively. Three different formulations of the glycyrrhizic acid hydrogels were made in dH2O:
# (§2) (i) Hydrogel C with pH=3, (ii) Hydrogel B with pH=3.8 and (iii) Hydrogel A with pH=4.2. pH was measured at 70° C. and varied using HCl or NaOH to acidify or alkalify the formulation to the desired pH-value. Moreover, different concentration batches (mass by volume) were used for the hydrogels: 2.5%, 5%, 7,5%, 10%, 15% and 20%. Glycyrrhizic acid in solution—not a hydrogel—was prepared at pH 7,4.
# (§3) To determine the growth inhibiting activity of glycyrrhizic acid in solution, 100 μL of different 1:2 dilutions of a 100 mg/mL stock solution of glycyrrhizic acid in MHB were added to the wells of a 96 well microtiter plate, after which 100 μL of a 5*10^5 CFU mL^−1 bacteria suspension in MHB was added to each well.
# (§4) To determine the growth inhibiting activity of the glycyrrhizic acid hydrogels, the hydrogel was liquefied by heating to 70° C. When liquid, varying volumes of the liquid hydrogel (80 μL to 160 μL) were pipetted into a 96 well microtiter plate. After the hydrogel solidified, 120 μL of a 5*10^5 CFU mL^−1 bacteria suspension in MHB was added on top of the hydrogel.
# (§5) To avoid evaporation, the plates were sealed using a membrane (Greiner Bio-one NV). After 24 hours of incubation (37° C., 200 rpm), the OD595 was measured and relative OD595 was calculated by dividing the OD595 by the average OD595 of the growth control (=growth of cells in MHB without glycyrrhizic acid).
# (§6) To determine the biocidal activity of glycyrrhizic acid in solution and in hydrogel, at the end of the growth inhibition assay (see above), after incubation, 100 μL of the medium on top of the hydrogel was diluted 10 times in Phosphate saline buffer (PBS; 1.24 g L^−1 K2HPO4. 0.39 g L^−1 KH2PO4. 8.8 g L^−1 NaCl) and plated out on MHB agar plates by spreading 100 μL of the dilution. After incubating overnight at 37° C., colonies were counted and the colony forming units were determined.
# [3] = test system: Enterococcus faecalis LMG8148; format: cell-based; details: bactericidal = 3 LOG reduction compared to the inoculum
# From the text: as §1, §2, §3, §4, §5, §6
# [4] = test system: Escherichia coli UTI89; format: cell-based; details: E. coli; bactericidal = 3 LOG reduction compared to the inoculum
# From the text: as §1, §2, §3, §4, §5, §6
# [5] = test system: Klebsiella aerogenes ATCC13048; format: cell-based; details: K. aerogenes; bactericidal = 3 LOG reduction compared to the inoculum
# From the text: as §1, §2, §3, §4, §5, §6
# [6] = test system: Klebsiella pneumoniae ATCC13883; format: cell-based; details: K. pneumoniae; bactericidal = 3 LOG reduction compared to the inoculum
# From the text: as §1, §2, §3, §4, §5, §6
# [7] = test system: Pseudomonas aeruginosa LMG9009; format: cell-based; details: P. aeruginosa; bactericidal = 3 LOG reduction compared to the inoculum
# From the text: as §1, §2, §3, §4, §5, §6
# [8] = test system: Staphylococcus epidermidis; format: cell-based; details: S. epidermidis; bactericidal = 3 LOG reduction compared to the inoculum
# From the text: as §1, §2, §3, §4, §5, §6
# [9] = test system: Streptococcus pyogenes LMG 14237; format: cell-based
# From the text: as §1, §2, §3, §4, §5, §6
compound,measurement,setting,value
"CC1(C)[C@@H](O[C@H]2O[C@H](C(=O)O)[C@@H](O)[C@H](O)[C@H]2O[C@@H]2O[C@H](C(=O)O)[C@@H](O)[C@H](O)[C@H]2O)CC[C@]2(C)[C@H]3C(=O)C=C4[C@@H]5C[C@@](C)(C(=O)O)CC[C@]5(C)CC[C@@]4(C)[C@]3(C)CC[C@@H]12 [GLY in solution, glycyrrhizic acid]","antibacterial effect (no effect, bacteriostatic, bactericidal)",[1],No effect
same,"antibacterial effect (no effect, bacteriostatic, bactericidal)",[2],No effect
same,"antibacterial effect (no effect, bacteriostatic, bactericidal)",[3],No effect
same,"antibacterial effect (no effect, bacteriostatic, bactericidal)",[4],No effect
same,"antibacterial effect (no effect, bacteriostatic, bactericidal)",[5],No effect
same,"antibacterial effect (no effect, bacteriostatic, bactericidal)",[6],No effect
same,"antibacterial effect (no effect, bacteriostatic, bactericidal)",[7],No effect
same,"antibacterial effect (no effect, bacteriostatic, bactericidal)",[8],No effect
same,growth inhibition,"[9]; 50 mg/mL in solution, pH 7.0, only one of nine pathogens tested that was inhibited",inhibited
same,"antibacterial effect (no effect, bacteriostatic, bactericidal)","[9]; Streptococcus, bactericidal = 3 LOG reduction compared to the inoculum",Bacteriostatic
